Reference: patent publication US20240415804A1, “METHOD OF TREATING PANCREATIC CANCER” (University of South Florida, priority 2022, published 2024)

Experiments:
CD40 = experiment: Flow cytometry of CD40 expression on M1 TAM in tumors of KC-HPC mice; format: in vivo, mouse; conditions: KC-HPC-API vs KC-HPC mice
Protocol: (§1) The inventors then assessed the expression of CD40 (a T cell co-stimulation marker) on M1 TAM (gated as MHC-II^+ and CD206) within the tumor from KC-HPC vs. KC-HPC-API mice. […] The femur and tibia were cut at the pelvic-hip joint and muscle was removed. The femurs and tibias were cut at the ends and flushed with a 30-gauge needle and 10 cc syringe filled with completed RPMI media until bone was white onto a petri dish. Pelleted bone marrow (BM) cells were treated with Red Blood Cell (RBC) lysis buffer (eBioscience, Waltham, MA, USA), according to the manufacturer's instructions, and then filtered through a […] nylon mesh cell strainer in 1×PBS. All pancreatic tumors were manually cut into ˜1-2 mm^3 fragments with a sterile razor blade and then enzymatically digested with Collagenase, type IV (Sigma-Aldrich), DNase, type IV (Sigma-Aldrich) and Hyaluronidase, Type V (Sigma-Aldrich) in Hank's Balanced Salt Solution for 1 h, spun down and washed as described in previous studies^61. Digested pancreatic tumor samples were treated with RBC lysis buffer and then filtered through a […] nylon mesh cell strainer in 1×PBS. Bone marrow and digested pancreatic tumor single cell suspensions were counted with a hemocytometer and then resuspended in 3% FBS/PBS. […]

[1] = test system: CD8+ T cells (CD3+CD8+CD4−); experiment: Flow cytometry of intra-tumoral CD8+ T cells and CD40L in KC-HPC mice; format: in vivo, mouse; conditions: API-treated vs vehicle-treated KC-HPC mice
Protocol: as §1, with “FBS/PBS. BM and digested pancreatic tumor cells (1×10^6) were Fc Blocked (anti-mouse CD16/CD32) and then surface stained for 30 min on ice protected from light with fluorescent anti-mouse antibodies including, CD11b-APC, Ly6C-PE/Cy7, Ly6G-PerCP, F4/80-BV650, MHC—II-BV605, CD206-FITC and CD40-PE/Cy5 along with isotype control antibodies (Biolegend, San Diego, CA, USA) to detect MDSC and macrophage subsets. Digested pancreatic tumor cells (1×10^6) were also Fc Blocked and then surface stained with fluorescent anti-mouse antibodies including CD3-FITC, CD8-PercP/Cy5.5, CD4-APC/Cy7, and CD40L-APC along with isotype control antibodies (Biolegend) to detect CD8^+ T cells. Subsequently, all samples were fixed with 2% paraformaldehyde for 15 min on ice protected from light.” for “FBS/PBS.”

PC-bearing mice = conditions: cited from earlier work
[2] = PC mouse model treated with API, earlier report (ref 12)
[3] = PC-bearing mice, previous results (ref 12)

## O=c1cc(-c2ccc(O)cc2)oc2cc(O)cc(O)c12 [API, 40,5,7-Trihydroxyflavone, 5,7-Dihydroxy-2-(4-hydroxyphenyl)-4-benzopyrone]
CD40
  CD40 expression on M1 TAM in tumor: significantly upregulated
[1]
  CD40L expression on intra-tumoral CD8+ T cells: no significant changes
  intra-tumoral CD8+ T cells (flow cytometric analysis): significant increase
  intra-tumoral CD8+ T cells absolute cell numbers: significant increase
PC-bearing mice; PC mice, previous report (refs 12, 55)
  tumor weights: decreases
PC-bearing mice; [2]
  intratumoral Treg percentages: significant reduction
  splenic Treg percentages: significant reduction
PC-bearing mice; [3]
  IFN-γ production from intratumoral CD8+ T cells: increases
  granzyme B: increases
  perforin: increases
